Measured values: patent US10570122B2, “Compounds with anti-tumoral activity” (AB Science, priority 2015, dated 2020)

How the values were obtained:
HL60 = experiment: CellTiter-Blue cell-based survival/proliferation assay, HL60; details: Homo sapiens, HL-60, Leukemia cell line HL60, 48 h, read-out: Anti-tumoral activity (measured IC50) HL60
Procedure, shortened: (§1)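 Tenfold compound dilutions (0–10 μM) were added to 1·10^4 cells/well. Plates incubated 48 h at 37 °C. CellTiter-Blue reduction (4 h, 37 °C) was read as fluorescence at 590 nm, background-corrected with a cell-free blank.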

HUT78 = experiment: CellTiter-Blue cell-based survival/proliferation assay, HUT78; details: Homo sapiens, Lymphoma cell line HUT78, 48 h, read-out: Anti-tumoral activity (measured IC50) HUT78
Experimental: (§2) Cell-Based Proliferation Screening of Compounds
(§3) CellTiter-Blue cell-based survival/proliferation assay (Promega G8080) was performed on tumor cell lines. A total of 1·10^4 cells/well/50 μl were seeded in a 96-wells plate. Treatment was initiated by addition of a 2× drug solution of 1/10 serial dilutions ranging from 0 to 10 μM. Cells were grown for 48 h at 37° C. and then incubated with 10 μl/well of Promega CellTiter-Bleue reagent for 4 h at 37° C. The amount of resorufin dye formed was quantified by its fluorescence emission at 590 nm using a scanning multiwell spectrophotometer (OPTIMA, BMG labtech, France). A blank well without cells was used as a background control for the spectrophotometer.

KARPAS299 = experiment: CellTiter-Blue cell-based survival/proliferation assay, KARPAS299; details: Homo sapiens, KARPAS-299, Lymphoma cell line KARPAS299, 48 h, read-out: Anti-tumoral activity (measured IC50) KARPAS299
Experimental: as §2, §3

REC1 = experiment: CellTiter-Blue cell-based survival/proliferation assay, REC1; details: Homo sapiens, Lymphoma cell line REC1, 48 h, read-out: Anti-tumoral activity (measured IC50) REC1
Experimental: as §2, §3

OPM2 = experiment: CellTiter-Blue cell-based survival/proliferation assay, OPM2; details: Homo sapiens, OPM-2, Myeloma cell line OPM2, 48 h, read-out: Anti-tumoral activity (measured IC50) OPM2
Procedure, shortened: as §1

A498 = experiment: CellTiter-Blue cell-based survival/proliferation assay, A498; details: Homo sapiens; A498 kidney tumor cell line, 48 h
Procedure, shortened: as §1

A549 = experiment: CellTiter-Blue cell-based survival/proliferation assay, A549; details: Homo sapiens; A549 lung tumor cell line, 48 h
Procedure, shortened: as §1

ACHN = experiment: CellTiter-Blue cell-based survival/proliferation assay, ACHN; details: Homo sapiens; ACHN kidney tumor cell line, 48 h
Procedure, shortened: as §1

AGS = experiment: CellTiter-Blue cell-based survival/proliferation assay, AGS; details: Homo sapiens; AGS stomach tumor cell line, 48 h
Procedure, shortened: as §1

BT20 = experiment: CellTiter-Blue cell-based survival/proliferation assay, BT20; details: Homo sapiens, BT-20; BT20 breast tumor cell line, 48 h
Procedure, shortened: as §1

BXPC3 = experiment: CellTiter-Blue cell-based survival/proliferation assay, BXPC3; details: Homo sapiens, BXPC-3; BXPC3 pancreas tumor cell line, 48 h
Procedure, shortened: as §1

CALU6 = experiment: CellTiter-Blue cell-based survival/proliferation assay, CALU6; details: Homo sapiens, Calu-6; CALU6 lung tumor cell line, 48 h
Procedure, shortened: as §1

CLS354 = experiment: CellTiter-Blue cell-based survival/proliferation assay, CLS354; details: Homo sapiens, CLS-354; CLS354_4 head & neck tumor cell line, 48 h
Procedure, shortened: as §1

DLD1 = experiment: CellTiter-Blue cell-based survival/proliferation assay, DLD1; details: Homo sapiens, DLD-1; DLD_1 colorectal tumor cell line, 48 h
Procedure, shortened: as §1

DU145 = experiment: CellTiter-Blue cell-based survival/proliferation assay, DU145; details: Homo sapiens, DU-145; DU145 prostate tumor cell line, 48 h
Procedure, shortened: as §1

H1299 = experiment: CellTiter-Blue cell-based survival/proliferation assay, H1299; details: Homo sapiens, NCI-H1299; H1299 lung tumor cell line, 48 h
Procedure, shortened: as §1

HCT116 = experiment: CellTiter-Blue cell-based survival/proliferation assay, HCT116; details: Homo sapiens, HCT-116; HCT116 colorectal tumor cell line, 48 h
Procedure, shortened: as §1

HEP2 = experiment: CellTiter-Blue cell-based survival/proliferation assay, HEP2; details: Homo sapiens, HEp-2; HEP2 head & neck tumor cell line, 48 h
Procedure, shortened: as §1

HEPG2 = experiment: CellTiter-Blue cell-based survival/proliferation assay, HEPG2; details: Homo sapiens; HEPG2 liver tumor cell line, 48 h
Procedure, shortened: as §1

HGC27 = experiment: CellTiter-Blue cell-based survival/proliferation assay, HGC27; details: Homo sapiens, HGC-27; HGC27 stomach tumor cell line, 48 h
Procedure, shortened: as §1

MDAMB231 = experiment: CellTiter-Blue cell-based survival/proliferation assay, MDAMB231; details: Homo sapiens, MDA-MB-231; MDAMB231 breast tumor cell line, 48 h
Procedure, shortened: as §1

MESSA = experiment: CellTiter-Blue cell-based survival/proliferation assay, MESSA; details: Homo sapiens, MES-SA; MESSA ovary tumor cell line, 48 h
Procedure, shortened: as §1

PANC1 = experiment: CellTiter-Blue cell-based survival/proliferation assay, PANC1; details: Homo sapiens, PANC-1; PANC_1 pancreas tumor cell line, 48 h
Procedure, shortened: as §1

PC3 = experiment: CellTiter-Blue cell-based survival/proliferation assay, PC3; details: Homo sapiens, PC-3; PC3 prostate tumor cell line, 48 h
Procedure, shortened: as §1

PLCPRF5 = experiment: CellTiter-Blue cell-based survival/proliferation assay, PLCPRF5; details: Homo sapiens, PLC-PRF-5; PLC_PRF5 liver tumor cell line, 48 h
Procedure, shortened: as §1

SW579 = experiment: CellTiter-Blue cell-based survival/proliferation assay, SW579; details: Homo sapiens; SW579 head & neck tumor cell line, 48 h
Procedure, shortened: as §1

TOV112D = experiment: CellTiter-Blue cell-based survival/proliferation assay, TOV112D; details: Homo sapiens; TOV112D ovary tumor cell line, 48 h
Procedure, shortened: as §1

[1] = tested on: panel of about 34 human tumor cell lines; experiment: Cell-based proliferation screening on panel of tumor cell lines; details: solid tumor cell line, cell line unknown, 48 h, read-out: IC50, solid tumor cell line of column 6 (last section of Table 3)
Procedure, shortened: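 CellTiter-Blue survival assay with 1·10^4 cells/well, each line treated 48 h at 37° C with 1/10 serial dilutions from 0 to 10 μM. Resorufin formed during a 4 h reagent incubation is read by fluorescence at 590 nm. A cell-free blank serves as background.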

| SMILES | IC50 (HL60) | IC50 (HUT78) | IC50 (KARPAS299) | IC50 (REC1) | IC50 (OPM2) | IC50 (A498) | IC50 (A549) | IC50 (ACHN) | IC50 (AGS) | IC50 (BT20) | IC50 (BXPC3) | IC50 (CALU6) | IC50 (CLS354) | IC50 (DLD1) | IC50 (DU145) | IC50 (H1299) | IC50 (HCT116) | IC50 (HEP2) | IC50 (HEPG2) | IC50 (HGC27) | further results |
| --- | --- | --- | --- | --- | --- | --- | --- | --- | --- | --- | --- | --- | --- | --- | --- | --- | --- | --- | --- | --- | --- |
| CCOCc1ccc(C)c(Nc2ncc(-c3ccc(-n4nccn4)cc3)o2)c1 [Example 036, (5-Ethoxymethyl-2-methyl-phenyl)-[5-(4-[1,2,3]triazol-2-yl-phenyl)-oxazol-2-yl]-amine] | 100 to 500 nM | ≤ 100 nM | ≤ 100 nM | ≤ 100 nM | 100 to 500 nM | > 1000 nM | > 1000 nM | 100 to 500 nM | ≤ 100 nM | 500 to 1000 nM | > 1000 nM | 500 to 1000 nM | ≤ 100 nM | > 1000 nM | > 1000 nM | 500 to 1000 nM | > 1000 nM | 100 to 500 nM | 100 to 500 nM | ≤ 100 nM | IC50 (MDAMB231): > 1000 nM; IC50 (MESSA): > 1000 nM; IC50 (PANC1): > 1000 nM; IC50 (PC3): 100 to 500 nM; IC50 (PLCPRF5): > 1000 nM; IC50 (SW579): > 1000 nM; IC50 (TOV112D): ≤ 100 nM; IC50 [1]: 100 to 500 nM |
| CCOCc1ccc(C)c(Nc2ncc(-c3ccc(-c4nccs4)cc3)o2)c1 [Example 038, (5-Ethoxymethyl-2-methyl-phenyl)-[5-(4-thiazol-2-yl-phenyl)-oxazol-2-yl]-amine] | 100 to 500 nM | > 1000 nM | > 1000 nM | 100 to 500 nM | 100 to 500 nM | > 1000 nM | > 1000 nM | > 1000 nM | > 1000 nM | > 1000 nM | > 1000 nM | > 1000 nM | > 1000 nM | > 1000 nM | > 1000 nM | > 1000 nM | > 1000 nM | 500 to 1000 nM | > 1000 nM | > 1000 nM | IC50 (MDAMB231): > 1000 nM; IC50 (MESSA): > 1000 nM; IC50 (PANC1): > 1000 nM; IC50 (PC3): > 1000 nM; IC50 (PLCPRF5): > 1000 nM; IC50 (SW579): > 1000 nM; IC50 (TOV112D): > 1000 nM; IC50 [1]: 500 to 1000 nM |
